Earlier results as cited in patent US20030143266A1, “Cationic amphiphile micellar complexes” (GENZYME CORPORATION, priority 1999, published 2003).

System: airway epithelial cells
Conditions: shown by elevation of cGMP levels, CFTR-dependent chloride transport, ciliary beat frequency

In the case of “CNP-22: C-type natriuretic peptide containing 22 amino acid; binds and activates guanylate cyclase-B receptor”, the “binding to airway epithelial cells in vivo” value is given as “Specific binding”.
